Several values for one entry are separate records, joined by “and”; a condition that tells them apart may be missing. Equal values may be shown once.
How the values were obtained:
[1] = Non enzymatic assay of superoxide radical scavenging activity (PMS/NADH/NBT); assay type: biochemical
Method: Superoxide radical is a main cause of oxidative stress, expressing its biological toxicity by the inactivation of iron-sulfur cluster containing enzymes. The superoxide anion radical (O2^−^•) is less toxic than the hydroxyl radical, but still being one of the most known toxic reactive oxygen species (ROS). In this assay the superoxide anion radicals were generated by a non-enzymatically assay and the compounds are tested at 100 μM final concentration (Table 2). Caffeic acid (CA) has been used as a reference compound. Compound 4ii presented the highest activity, followed by compound 3ii. We succeeded to derive a quantitative-structure activity relationship model for this activity in which the topological polar surface (TPAS) of the compounds seem to govern the superoxide anion scavenging activity:% Superoxide Anion Scavenging Activity (100 µM) = 0.019 (±0.007) TPSA + 0.813 (±0.358) n = 6, r = 0.962, r^2 = 0.926, q^2 = 0.694, s = 0.122, Q = 7.885, F1,6 = 3.701, α = 0.1 clog P vs. TPSA 0.
The superoxide radicals are generated by mixing N-methylphenazonium methyl sulfate (PMS), NADH and air–oxygen and determined by the nitroblue tetrazolium method and measured at 560 nm (Table 2). Caffeic acid was used as reference compound [17, 18, 28].

[2] = Reducing activity of the stable radical DPPH; assay type: biochemical
Method: The substituted acids were monitored for the antioxidant activity by the use of the stable 2,2-diphenyl-1-picrylhydrazyl radical (DPPH) at concentration 50 µM and 100 µM after 20 and 60 min (Table 1). In this assay the DPPH radical is reduced by single electron transfer from the antioxidant. Strong antioxidants are the phenoxide anions from phenolic compounds like catechol and derivatives, such as nordihydroguaretic acid (NDGA), the reference compound. The compounds presented medium reducing abilities from 29–61%, due to steric reasons; small differences were found among the compounds with time and concentration. 4-Br-substituted-3 phenyl acetic acid derivatives (Series I) are equipotent to 4-OH-substituted-3 phenyl acetic acid derivatives (Series II). No differences were observed between 4i and 5i and 4ii and 5ii.
To a solution of DPPH in absolute ethanol an equal volume of the compounds dissolved in DMSO was added. The final concentrations of the measured solutions of the novel acids were 50 and 100 µM starting from a stock solution (10 mM) in DMSO. The absorbance was recorded at 517 nm, after 20 and 60 min at room temperature (Table 1).

[3] = Experimental lipophilicity as RM values by reversed phase TLC (RPTLC); assay type: physicochemical; details: methanol/water 77/23 with 0.1% acetic acid, 24 °C, average of at least 5 measurements
Excerpt: Lipophilicity is a physicochemical property correlated with the biological activity. Lipophilicity influences ligand-target binding interactions, solubility, absorption, distribution, bioavailability, metabolism and elimination (ADME) and toxicological outcomes. The lipophilicity of the novel cinnamic acids was experimentally measured as RM values using a reverse phase thin layer chromatography (RPTLC) method. This is acknowledged as a reliable, fast and convenient approach for expressing lipophilicity (Table 1). RM relates to the thermodynamic Rf value in a logarithmic form. Bate-Smith and Westall firstly determined lipophilicity as RM values in 1950 [31]. The Br-substituted derivatives 1i–7i are more lipophilic than the OH-substituted ones 1ii–7ii which can be easily explained by their structural characteristics.
Reversed phase TLC (RPTLC) was performed on silica gel plates impregnated with 55% (v/v) liquid paraffin in light petroleum ether. The mobile phase was a methanol/water mixture (77/23, v/v) containing 0.1% of acetic acid. The plates were developed in closed chromatography tanks saturated with the mobile phase at 24 °C. Spots were detected under UV light. RM values were determined from the corresponding Rf values (from five individual measurements) using the equation RM = log[(1/Rf) − 1] [17, 18, 28].

[4] = ABTS+• decolorization assay; assay type: biochemical; details: 1 min, 734 nm
Method: No role for lipophilicity was found. Oxidation of ABTS with potassium persulfate generates directly the ABTS radical cation (ABTS^+•) with no involvement of an intermediary radical, which is then reduced upon adding electron-donating antioxidants.
In order to produce the ABTS radical cation (ABTS^+•), ABTS stock solution in water (7 mM) was mixed with potassium persulfate (2.45 mM) and left in the dark at room temperature for 12–16 h before use. Our published experimental technique was used (Table 2). The results are recorded after 1 min of the mixing solutions at 734 nm. The results were compared to the appropriate standard inhibitor Trolox.

[5] = Inhibition of linoleic acid peroxidation (AAPH); assay type: biochemical; details: anti-lipid peroxidation
Excerpt: We also used water-soluble 2,2′-[…](2-amidinopropane) hydrochloride (AAPH) for the generation of free radicals. AAPH has been extensively used as a clean and controllable source of thermally produced alkylperoxyl free radicals. The peroxyl radicals produced by the action of AAPH show total similarity to cellular activities such as lipid peroxidation. […] It seems that the presence of 3,5-di-tert-butyl-group greatly enhances protection against lipid peroxidation (6i/ii and 7i/ii followed by 3ii and 5ii). The lipid peroxidation inhibitory activity seems to be concentration dependent.
2,2’-Azobis(2-amidinopropane) dihydrochloride (AAPH) was used as a free radical initiator to start the oxidation reaction. The method was based on the production of conjugated diene hydroperoxide by oxidation of linoleic acid at 234 nm expressed as an increased absorption. Trolox was used as reference compound (93%) (Table 2).

soybean lipoxygenase = biological target: T1, soybean lipoxygenase (Glycine max, UniProt P08170); assay: Soybean lipoxygenase inhibition in vitro; assay type: biochemical; details: for IC50: sodium linoleate 0.1 mM, 234 nm, read-out: LOX IC50
T1 construct: purchased Sigma Chemical, Co. (St. Louis)
T1 sequence (P08170 1-839): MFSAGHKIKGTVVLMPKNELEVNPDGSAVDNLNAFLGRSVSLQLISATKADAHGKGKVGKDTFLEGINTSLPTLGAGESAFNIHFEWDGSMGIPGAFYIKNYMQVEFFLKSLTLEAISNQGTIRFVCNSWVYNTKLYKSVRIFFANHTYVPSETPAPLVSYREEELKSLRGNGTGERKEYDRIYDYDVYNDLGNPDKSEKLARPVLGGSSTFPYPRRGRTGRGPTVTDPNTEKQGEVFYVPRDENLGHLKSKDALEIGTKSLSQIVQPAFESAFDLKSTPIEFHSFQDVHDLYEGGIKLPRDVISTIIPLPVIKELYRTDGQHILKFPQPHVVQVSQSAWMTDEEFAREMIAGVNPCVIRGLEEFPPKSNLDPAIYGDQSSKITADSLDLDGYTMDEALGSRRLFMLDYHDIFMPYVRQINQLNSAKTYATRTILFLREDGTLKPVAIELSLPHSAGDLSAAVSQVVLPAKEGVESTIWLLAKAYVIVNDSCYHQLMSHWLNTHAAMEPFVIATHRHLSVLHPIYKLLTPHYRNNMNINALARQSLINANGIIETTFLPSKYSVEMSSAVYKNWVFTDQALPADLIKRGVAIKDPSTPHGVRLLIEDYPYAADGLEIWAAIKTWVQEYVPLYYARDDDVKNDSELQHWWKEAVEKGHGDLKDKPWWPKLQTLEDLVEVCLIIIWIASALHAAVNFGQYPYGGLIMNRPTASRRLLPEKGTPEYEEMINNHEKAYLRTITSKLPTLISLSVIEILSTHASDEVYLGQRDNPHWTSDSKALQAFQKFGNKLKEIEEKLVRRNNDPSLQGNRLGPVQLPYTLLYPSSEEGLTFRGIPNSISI
Method: Many research groups have used readily obtainable soybean lipoxygenase, which is a homologue of mammalian lipoxygenase and well studied. Due to its availability and its well-characterised crystal structure, soybean LOX was selected to be used in this study.
In vitro study was evaluated as reported previously by our group. The tested compounds were incubated at room temperature with sodium linoleate (0.1 mM) and 0.2 mL of enzyme solution (1/9 × 104 w/v in saline). The method was based to the conversion of sodium linoleate to 13-hydroperoxylinoleic acid at 234 nm. […] In order to determine the IC50 values different concentrations were used.

[6] = Competition with DMSO for hydroxyl radicals (Fe3+/ascorbic acid system); assay type: biochemical; details: hydroxyl radical scavenging
Method: Competition of the novel substituted acids with DMSO for hydroxyl radicals was measured. Hydroxyl radicals were generated using the Fe^3+/ascorbic acid system and expressed as a percentage inhibition of formaldehyde production in the presence of each compound at 100 μM (Table 2). All the synthesized derivatives strongly scavenge hydroxyl radicals at 100 μM in comparison to the reference compound Trolox.
The hydroxyl radicals generated by the Fe^3+/ascorbic acid system, were detected by the determination of formaldehyde produced from the oxidation of DMSO (Table 2). Trolox was used as reference compound [17, 18, 28].

SMILES | melting point [°C] | O2−•% 100 µM [1] [%] | RA% 50 µM 20 min [2] [%] | RA% 50 µM 60 min [2] [%] | RA% 100 µM 20 min [2] [%] | RA% 100 µM 60 min [2] [%] | RM (±SD) [3] | ABTS+•% 100 µM [4] | AAPH% 50 µM [5] [%] | AAPH% 100 µM [5] [%] | IC50 (soybean lipoxygenase) [µM] | HO•% 100 µM [6] [%] | LOX % Inhibition 100 µM (soybean lipoxygenase; 100 µM) [%] | inhibition at 100 µM (soybean lipoxygenase; 100 µM, read-out: LOX % Inhibition 100 µM) [%]
CC(C)(C)c1cc(C=C(C(=O)O)c2ccc(Br)cc2)cc(C(C)(C)C)c1O [Compound 7i, 2-(4-Bromophenyl)-3-(3,5-di-tert-butyl-4-hydroxyphenyl)acrylic acid] | 137 to 138 | 54 | 34 | 35 | 30 | 31 | 1.151 (0.021) | 28% | 61 | 100 | 72.5 | 87 |  | 
CC(=Cc1ccccc1)C=C(C(=O)O)c1ccc(O)cc1 [Compound 5ii, 2-(4-Hydroxyphenyl)-4-methyl-5-phenylpenta-2,4-dienoic acid] | 90 to 91 | 8 | 32 | 39 | 30 | 41 | −0.565 (0.003) | 35% | 53 | 93 | 81.5 | 89 |  | 
O=C(O)C(=CC(Br)=Cc1ccccc1)c1ccc(O)cc1 [Compound 4ii, 4-Bromo-2-(4-hydroxyphenyl)-5-phenylpenta-2,4-dienoic acid] | 155 to 157 | 100 | 34 | 46 | 35 | 37 | 0.011 (0.001) | 24% | 59 | 97 | 69 | 96 |  | 
O=C(O)C(=CC(Br)=Cc1ccccc1)c1ccc(Br)cc1 [Compound 4i, 4-Bromo-2-(4-bromophenyl)-5-phenylpenta-2,4-dienoic acid] | 211 to 212 | 46 | 30 | 30 | 38 | 36 | 0.423 (0.017) | 24% | 52 | 85 |  | 83 | 28 | 27.9
CC(C)(C)c1cc(C=C(C(=O)O)c2ccc(O)cc2)cc(C(C)(C)C)c1O [Compound 7ii, 3-(3,5-di-tert-Butyl-4-hydroxyphenyl)-2-(4-hydroxyphenyl)acrylic acid] | 139 to 140 | 69 | 33 | 35 | 33 | 34 | 0.654 (0.016) | 34% | 69 | 100 | 57.5 | 72 |  | 
O=C(O)C(=Cc1cccc(Oc2ccccc2)c1)c1ccc(O)cc1 [Compound 1ii, 2-(4-Hydroxyphenyl)-3-(3-phenoxyphenyl)acrylic acid] | 105 to 107 | 8 | 40 | 39 | 45 | 47 | −0.537 (0.002) | 83.4% and 83% | 22 | 94 | 91.5 | 100 |  | 
O=C(O)C(=Cc1cccc(Oc2ccccc2)c1)c1ccc(Br)cc1 [Compound 1i, 2-(4-Bromophenyl)-3-(3-phenoxyphenyl)acrylic acid] | 152 to 153 | 54 | 38 | 37 | 44 | 46 | −0.103 (0.009) | 29% | 34 | 90 | 100 | 94 |  | 
